How the values were obtained:
Aminopeptidase N = target: T1, Aminopeptidase N (Sus scrofa, UniProt P15145); experiment: Inhibition of pig kidney microsomes aminopeptidase N preincubated for 30 mins
T1 sequence (P15145 whole entry): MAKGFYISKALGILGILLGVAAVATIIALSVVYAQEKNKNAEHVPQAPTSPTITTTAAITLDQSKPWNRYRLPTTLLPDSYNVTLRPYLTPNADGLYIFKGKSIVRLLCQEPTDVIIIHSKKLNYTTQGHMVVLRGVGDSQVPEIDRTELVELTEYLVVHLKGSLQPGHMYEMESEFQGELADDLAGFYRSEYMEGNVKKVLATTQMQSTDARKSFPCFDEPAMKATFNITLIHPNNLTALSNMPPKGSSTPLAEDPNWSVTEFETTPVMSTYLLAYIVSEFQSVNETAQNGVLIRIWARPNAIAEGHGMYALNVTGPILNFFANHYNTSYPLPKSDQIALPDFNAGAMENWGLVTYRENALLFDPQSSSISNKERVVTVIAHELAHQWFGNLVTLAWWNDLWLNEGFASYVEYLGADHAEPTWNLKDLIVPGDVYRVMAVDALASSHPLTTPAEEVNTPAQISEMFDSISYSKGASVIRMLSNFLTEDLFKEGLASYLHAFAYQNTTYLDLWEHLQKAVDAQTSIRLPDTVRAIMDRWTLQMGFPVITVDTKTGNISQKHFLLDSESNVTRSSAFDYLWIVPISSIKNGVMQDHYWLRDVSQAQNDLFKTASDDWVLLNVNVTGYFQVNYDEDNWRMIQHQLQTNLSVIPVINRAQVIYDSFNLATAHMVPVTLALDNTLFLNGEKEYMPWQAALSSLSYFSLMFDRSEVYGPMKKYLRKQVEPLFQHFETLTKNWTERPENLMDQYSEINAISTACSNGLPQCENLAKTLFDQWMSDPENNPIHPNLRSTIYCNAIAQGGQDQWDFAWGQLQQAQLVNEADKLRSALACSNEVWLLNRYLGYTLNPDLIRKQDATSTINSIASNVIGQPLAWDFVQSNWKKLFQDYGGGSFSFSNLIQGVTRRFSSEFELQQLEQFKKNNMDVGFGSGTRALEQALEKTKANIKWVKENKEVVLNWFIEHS

HL-60 = experiment: Cytotoxicity against human HL60 cells after 48 hrs by MTT assay; format: functional, cell-based; conditions: HL-60, 48 h
H22 = experiment: Antimetastatic activity in mouse H22 cells xenografted in mouse assessed as reduction of metastasized nodes at 50 mg/kg, po administered 6 days per week for 2 weeks measured after 1 day last post dose; format: functional; design: scale not given: the % may be the effect or the level left

IC50 (Aminopeptidase N) [µM]	Structure (SMILES)	IC50 (HL-60) [µM]	Activity (H22) [%]
63.2	O=C(O)CNC(=O)CN1C(=O)CC[C@H](NC(=O)c2cc(O)c(O)c(O)c2)C1=O	–	–
47.3	O=C(O)CN1C(=O)CC[C@H](NC(=O)c2cc(O)c(O)c(O)c2)C1=O	–	–
4.3	O=C(CN1C(=O)CC[C@H](NC(=O)c2cc(O)c(O)c(O)c2)C1=O)NO	–	–
–	CC(C)C[C@H](NC(=O)[C@@H](O)[C@H](N)Cc1ccccc1)C(=O)O [UBENIMEX]	245	60.25
50.3	COC(=O)[C@@H](CS)NC(=O)CN1C(=O)CC[C@H](NC(=O)c2cc(OC)c(OC)c(OC)c2)C1=O	–	–
38.1	COC(=O)[C@H](CCCCNC(=O)OCc1ccccc1)NC(=O)CN1C(=O)CC[C@H](NC(=O)c2cc(OC)c(OC)c(OC)c2)C1=O	–	–
10.3	O=C(CN1C(=O)CC[C@H](NC(=O)c2cc(O)c(O)c(O)c2)C1=O)N[C@@H](Cc1ccccc1)C(=O)O	–	–
–	COc1cc(C(=O)N[C@H]2CCC(=O)N(CC(=O)NO)C2=O)cc(OC)c1OC	136	81.56
55.4	CC(C)C[C@H](NC(=O)CN1C(=O)CC[C@H](NC(=O)c2cc(O)c(O)c(O)c2)C1=O)C(=O)O	–	–
21.7	COC(=O)CC(NC(=O)CN1C(=O)CC[C@H](NC(=O)c2cc(OC)c(OC)c(OC)c2)C1=O)C(=O)OC (single isomer, unassigned)	–	–
50	COC(=O)[C@@H](CCl)NC(=O)CN1C(=O)CC[C@H](NC(=O)c2cc(OC)c(OC)c(OC)c2)C1=O	–	–

Structure (SMILES)	IC50 (Aminopeptidase N) [µM]	IC50 (HL-60) [µM]	Activity (H22) [%]
COC(=O)[C@H](CCCNC(=N)N[N+](=O)[O-])NC(=O)CN1C(=O)CC[C@H](NC(=O)c2cc(OC)c(OC)c(OC)c2)C1=O	42	86	–
